According to patent US20070093520A1, “Method of treatment of diarrhea-predominant irritable bowel syndrome in a subject” (priority 2005, published 2007):

System: diarrhea-predominant IBS subjects
Type: in vivo, human
Details: TEAE incidence, 2 mg, Safety Population; PT
Description: The study was performed in approximately 150 study centers. Approximately 1600 eligible subjects were to be given cilansetron 2 mg TID. At Visit 1, pre-treatment assessments were conducted. […] Subjects were to return to the study site one month later for Visit 3 (Day 31) for their first interim assessment. […] All subjects who discontinued from the study were to have the same post-study assessments required at Visit 7 performed at their early termination visit. […]
Stool specimens were analyzed at every visit for occult blood. An independent GERB had been established to provide advice on GI AEs during the course of the study.
Adverse events were assessed at Baseline, at each clinic visit, and at the end of the study (Month 12 or the early termination visit). All AEs, which occurred during the study were followed up in accordance with good medical practice until resolved or judged no longer clinically significant, or if a condition was chronic, until fully characterized. Adverse events could occur in the specified follow-up period and, regardless of the interval since the last administration of the study medication, were treated in the same manner as an AE which occurred during the treatment with study medication. Each AE was evaluated for duration, severity, seriousness, and causal relationship to the investigational drug. The action taken and the outcome were also recorded.
Specifically, subjects who were lost to follow-up and had no post-Baseline contact with the site were excluded from the Safety population. The subjects who discontinued from the study due to lost to follow-up were identified based on the information collected on the study termination CRF page.
After the pretreatment assessment at Visit 1 (Days […] to −3), subjects were to return to the study site for a Baseline assessment and start the treatment at Visit 2 (Day 1).
For the by time-interval analyses of disposition, prevalence of AEs, and of markedly abnormal and predefined changes in laboratory values, vital signs, and ECGs, the following interval windows were used:
Adverse events that were already present prior to the first dose of cilansetron study medication but increased in severity afterwards were considered as treatment-emergent.
The 5% cutoff point was based on the incidence within higher level terms.
Subjects were counted at most once for each primary system organ class and preferred term. Serious AEs that resolved prior to receiving study medication or occurred more than 30 days after the last dose of study medication were not included in the incidence tables. A listing of all SAEs is presented; SAEs with onset prior to receiving study medication or more than 30 days after discontinuation of study medication were flagged. The listing presents lower level term and preferred term of the SAE, severity, action taken, outcome, and relationship of the SAE, start and stop date of the SAE, study day of onset of the SAE, age, race, and sex.

Structure (SMILES): Cc1nccn1C[C@H]1CCc2c(c3cccc4c3n2CCC4)C1=O [cilansetron, (R)-(−)-4,5,6,8,9,10-hexahydro-10-[(2-methyl-1H-imidazol-1-yl)methyl]-11H-pyrido-[3,2,1-jk]-carbazol-11-one]
- Cervical Disc Lesion: 1 (<1%) n (%)
- Chest Discomfort: 1 (<1%) n (%)
- Chest Pain: 12 (<1%) n (%)
- Chromaturia: 1 (<1%) n (%)
- Chronic Obstructive Airways Disease Exacerbated: 1 (<1%) n (%)
- Clavicle Fracture: 1 (<1%) n (%)
- Contusion: 2 (<1%) n (%)
- Coronary Artery Disease NOS: 2 (<1%) n (%)
- Cough: 26 (2%) n (%)
- Cystocele*: 1 (<1%) n (%)
- Dandruff: 1 (<1%) n (%)
- Depressed Mood: 1 (<1%) n (%)
- Depression: 21 (1%) n (%)
- Depression Aggravated: 6 (<1%) n (%)
- Dermatitis Allergic: 11 (<1%) n (%)
- Dermatitis Contact: 1 (<1%) n (%)
- Dermatitis NOS: 2 (<1%) n (%)
- Diabetes Mellitus NOS: 3 (<1%) n (%)
- Diabetes Mellitus Non-Insulin-Dependent: 1 (<1%) n (%)
- Difficulty in Micturition: 2 (<1%) n (%)
- Discoid Lupus Erythematosus: 1 (<1%) n (%)
- Dissociation: 1 (<1%) n (%)
- Distension NOS: 3 (<1%) n (%)
- Dry Skin: 1 (<1%) n (%)
- Dysmenorrhoea*: 2 (<1%) n (%)
- Dyspnoea Exacerbated: 2 (<1%) n (%)
- Dyspnoea NOS: 5 (<1%) n (%)
- Dysuria: 5 (<1%) n (%)
- Eczema: 3 (<1%) n (%)
- Epidermal Cyst: 1 (<1%) n (%)
- Epistaxis: 2 (<1%) n (%)
- Erectile Dysfunction NOS*: 2 (<1%) n (%)
- Erythema: 1 (<1%) n (%)
- Extrasystoles NOS: 2 (<1%) n (%)
- Face Injury: 2 (<1%) n (%)
- Fall: 2 (<1%) n (%)
- Fatigue: 20 (1%) n (%)
- Fear of Falling: 1 (<1%) n (%)
- Fibula Fracture: 1 (<1%) n (%)
- Fluid Retention: 1 (<1%) n (%)
- Food Intolerance NOS: 1 (<1%) n (%)
- Foot Fracture: 2 (<1%) n (%)
- Forearm Fracture: 1 (<1%) n (%)
- Foreign Body in Eye: 1 (<1%) n (%)
- Genital Discharge: 1 (<1%) n (%)
- Genital Pain NOS: 1 (<1%) n (%)
- Glycosuria: 1 (<1%) n (%)
- Gout: 1 (<1%) n (%)
- Groin Pain: 2 (<1%) n (%)
- Gynaecomastia*: 1 (<1%) n (%)
- Haematuria: 2 (<1%) n (%)
- Hand Fracture: 1 (<1%) n (%)
- Hangover: 1 (<1%) n (%)
- Head Injury: 3 (<1%) n (%)
- Heat Rash: 1 (<1%) n (%)
- Hoarseness: 1 (<1%) n (%)
- Hunger: 1 (<1%) n (%)
- Hypercholesterolaemia: 8 (<1%) n (%)
- Hypercholesterolaemia Aggravated: 1 (<1%) n (%)
- Hyperglycaemia NOS: 4 (<1%) n (%)
- Hyperkalaemia: 1 (<1%) n (%)
- Hyperlipidaemia NOS: 3 (<1%) n (%)
- Hypertriglyceridaemia: 8 (<1%) n (%)
- Hypokalaemia: 3 (<1%) n (%)
- Hyponatraemia Aggravated: 1 (<1%) n (%)
- Hypotrichosis: 4 (<1%) n (%)
- Influenza Like Illness: 8 (<1%) n (%)
- Inguinal Mass: 1 (<1%) n (%)
- Injury NOS: 1 (<1%) n (%)
- Insomnia: 20 (1%) n (%)
- Intervertebral Disc Herniation: 2 (<1%) n (%)
- Joint Dislocation: 1 (<1%) n (%)
- Joint Sprain: 3 (<1%) n (%)
- Joint Stiffness: 2 (<1%) n (%)
- Joint Swelling: 2 (<1%) n (%)
- Laceration: 2 (<1%) n (%)
- Laryngitis NOS: 3 (<1%) n (%)
- Lethargy: 1 (<1%) n (%)
- Leukocyturia: 2 (<1%) n (%)
- Libido Decreased: 1 (<1%) n (%)
- Ligament Injury NOS: 4 (<1%) n (%)
- Limb Injury NOS: 8 (<1%) n (%)
- Localised Osteoarthritis: 2 (<1%) n (%)
- Loin Pain: 1 (<1%) n (%)
- Loss of Libido: 1 (<1%) n (%)
- Major Depressive Disorder NOS: 1 (<1%) n (%)
- Malaise: 2 (<1%) n (%)
- Maxillary Sinusitis: 5 (<1%) n (%)
- Menopausal Symptoms*: 1 (<1%) n (%)
- Menorrhagia*: 1 (<1%) n (%)
- Menses Delayed*: 1 (<1%) n (%)
- Mental Disorder NOS: 1 (<1%) n (%)
- Monoarthritis: 2 (<1%) n (%)
- Mood Alteration NOS: 1 (<1%) n (%)
- Mood Swings: 2 (<1%) n (%)
- Muscle Cramps: 6 (<1%) n (%)
- Muscle Injury NOS: 2 (<1%) n (%)
- Muscle Spasms: 2 (<1%) n (%)
- Muscle Strain: 7 (<1%) n (%)
- Muscle Tightness: 1 (<1%) n (%)
- Muscle Twitching: 1 (<1%) n (%)
- Musculoskeletal Chest Pain: 2 (<1%) n (%)
- Musculoskeletal Discomfort: 1 (<1%) n (%)
- Musculoskeletal Pain: 1 (<1%) n (%)
- Myalgia: 11 (<1%) n (%)
- Myocardial Ischaemia: 4 (<1%) n (%)
- Nail Discolouration: 1 (<1%) n (%)
- Nail Disorder NOS: 1 (<1%) n (%)
- Nasal Congestion: 2 (<1%) n (%)
- Nasal Ulcer: 1 (<1%) n (%)
- Neck Injury NOS: 1 (<1%) n (%)
- Neck Pain: 8 (<1%) n (%)
- Neck Stiffness: 1 (<1%) n (%)
